IC50 data for 24 compounds are collected here from US20240092784A1, “CONDENSED HETEROCYCLIC COMPOUND” (NISSAN CHEMICAL CORPORATION, priority 2020, published 2024).

Structures are written as SMILES. Structures can show the parent of a compound that is named as a salt.

For one assay, the target named is human SPR (Homo sapiens (Human), UniProt P35270). Kind of assay: Evaluation Example 2: Measurement of human SPR inhibitory activity (seven concentrations, sepiapterin absorbance at 420 nm). Format: biochemical. As to conditions: Evaluation Example 2, seven concentrations 0.14 nM to 100 nM, 240 minutes at room temperature, read-out: IC50. The procedure, abridged: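 His-tagged full-length human SPR (1-261) was expressed in E. coli and the tag removed. Enzyme at 150 ng/mL in 100 mM Tris-HCl pH 7.5/0.01% BSA was mixed with compound (0.14–100 nM, seven points), 120 μM sepiapterin and 160 μM NADPH, both as added-solution concentrations. After 240 min at room temperature, remaining sepiapterin was read at 420 nm to give percent inhibition.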
Chain of human SPR (P35270 whole entry): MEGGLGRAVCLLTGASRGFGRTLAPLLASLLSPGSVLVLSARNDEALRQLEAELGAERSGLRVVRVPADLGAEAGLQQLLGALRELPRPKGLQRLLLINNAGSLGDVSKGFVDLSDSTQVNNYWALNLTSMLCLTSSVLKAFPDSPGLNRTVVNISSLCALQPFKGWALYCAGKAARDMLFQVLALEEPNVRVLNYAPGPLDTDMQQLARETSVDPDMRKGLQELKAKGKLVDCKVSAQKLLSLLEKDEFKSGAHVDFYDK
For the compound `CC(C)(C)Cn1c(=O)c(C(=O)NC2CC2)c(O)n2nc3c(c12)CN(C1CCC(F)(F)CC1)C(=O)N3` [Synthesis Example 407, N-Cyclopropyl-3-(4,4-difluorocyclohexyl)-8-hydroxy-5-neopentyl-2,6-dioxo-1,2,3,4,5,6-hexahydropyrazolo[1,5-a:3,4-d′]dipyrimidine-7-carboxamide], the IC50 worked out at 1.23 nM.
Still for that read-out and setting: the value for `Cc1nn2c(O)c(C(=O)NC3CC3)c(=O)n(CC(C)C)c2c1/C=C/C(=O)N1CCCC12CC2` [Synthesis Example 652, (E)-N-Cyclopropyl-7-hydroxy-4-isobutyl-2-methyl-5-oxo-3-(3-oxo-3-(4-azaspiro[2.4]heptan-4-yl)prop-1-en-1-yl)-4,5-dihydropyrazolo[1,5-a]pyrimidine-6-carboxamide] was 2.18 nM.
On to `Cc1nn2c(O)c(C(=O)NC3CC3)c(=O)n(CC(C)C)c2c1/C=C/C(=O)N1C2CCC1COC2` [Synthesis Example 658, (E)-3-(3-(3-Oxa-8-azabicyclo[3.2.1]octan-8-yl)-3-oxoprop-1-en-1-yl)-N-cyclopropyl-7-hydroxy-4-isobutyl-2-methyl-5-oxo-4,5-dihydropyrazolo[1,5-a]pyrimidine-6-carboxamide], for which the IC50 is 0.78 nM.
Same read-out and setting: as for `CC(C)Cn1c(=O)c(C(=O)NC2CC2)c(O)n2ncc(/C=C/C(=O)N(C)C3CC3)c12` [compound 497, (E)-N-Cyclopropyl-3-(3-(cyclopropyl(methyl)amino)-3-oxoprop-1-en-1-yl)-7-hydroxy-4-isobutyl-5-oxo-4,5-dihydropyrazolo[1,5-a]pyrimidine-6-carboxamide], the figure is 0.59 nM; as for `CC(C)Cn1c(=O)c(C(=O)NC2CC2)c(O)n2ncc(/C=C/C(=O)N(C3CC3)C3CC3)c12` [compound 515, (E)-N-Cyclopropyl-3-(3-(dicyclopropylamino)-3-oxoprop-1-en-1-yl)-7-hydroxy-4-isobutyl-5-oxo-4,5-dihydropyrazolo[1,5-a]pyrimidine-6-carboxamide], 0.84 nM.
Same read-out and setting: as for `CC(C)Cn1c(=O)c(C(=O)NC2CC2)c(O)n2ncc(/C=C/C(=O)N3CCOC[C@H]3CO)c12` [compound 526, (R,E)-N-Cyclopropyl-7-hydroxy-3-(3-(3-(hydroxymethyl)morpholino)-3-oxoprop-1-en-1-yl)-4-isobutyl-5-oxo-4,5-dihydropyrazolo[1,5-a]pyrimidine-6-carboxamide], the figure is 0.67 nM; as for `CC(C)Cn1c(=O)c(C(=O)NC2CC2)c(O)n2ncc(C(=O)N[C@H](C)c3ccccn3)c12` [Synthesis Example 219, (R)-N6-Cyclopropyl-7-hydroxy-4-isobutyl-5-oxo-N3-(1-(pyridin-2-yl)ethyl)-4,5-dihydropyrazolo[1,5-a]pyrimidine-3,6-dicarboxamide], 0.98 nM; as for `COCC1CCN(C(=O)/C=C/c2cnn3c(O)c(C(=O)NC4CC4)c(=O)n(CC(C)C)c23)CC1` [compound 475, (E)-N-Cyclopropyl-7-hydroxy-4-isobutyl-3-(3-(4-(methoxymethyl)piperidin-1-yl)-3-oxoprop-1-en-1-yl)-5-oxo-4,5-dihydropyrazolo[1,5-a]pyrimidine-6-carboxamide], 0.85 nM.
Still for that read-out and setting: the value for `CC(C)Cn1c(=O)c(C(=O)NC2CC2)c(O)n2ncc(/C=C/C(=O)N(C)CCC#N)c12` [compound 524, (E)-3-(3-((2-Cyanoethyl)(methyl)amino)-3-oxoprop-1-en-1-yl)-N-cyclopropyl-7-hydroxy-4-isobutyl-5-oxo-4,5-dihydropyrazolo[1,5-a]pyrimidine-6-carboxamide] was 0.72 nM.
In the case of `Nc1nn2c(O)c(C(=O)NC3CC3)c(=O)n(CC3CC3)c2c1/C=C/C(=O)N1CCOCC1` [Synthesis Example 419, (E)-2-Amino-N-cyclopropyl-4-(cyclopropylmethyl)-7-hydroxy-3-(3-morpholino-3-oxoprop-1-en-1-yl)-5-oxo-4,5-dihydropyrazolo[1,5-a]pyrimidine-6-carboxamide hydrochloride], the IC50 came to 0.83 nM.
Still for that read-out and setting: the value for `Cc1nn2c(O)c(C(=O)NC3CC3)c(=O)n(CC(C)C)c2c1/C=C/C(=O)N1CCc2cc(Br)ccc21` [Synthesis Example 670, (E)-3-(3-(5-Bromoindolin-1-yl)-3-oxoprop-1-en-1-yl)-N-cyclopropyl-7-hydroxy-4-isobutyl-2-methyl-5-oxo-4,5-dihydropyrazolo[1,5-a]pyrimidine-6-carboxamide] was 11.5 nM.
Still for that read-out and setting: as for `COC(C)Cn1c(=O)c(C(=O)NC2CC2)c(O)n2ncc(/C=C/C(=O)N3CCOCC3)c12` (single isomer, unassigned) [Synthesis Example 385, (E)-N-Cyclopropyl-7-hydroxy-4-(2-methoxypropyl)-3-(3-morpholino-3-oxoprop-1-en-1-yl)-5-oxo-4,5-dihydropyrazolo[1,5-a]pyrimidine-6-carboxamide], the figure is 0.83 nM; as for `CC(C)Cn1c(=O)c(C(=O)NC2CC2)c(O)n2ncc(/C=C/C(=O)N3CCN(CC(F)(F)F)CC3)c12` [compound 506, (E)-N-Cyclopropyl-7-hydroxy-4-isobutyl-5-oxo-3-(3-oxo-3-(4-(2,2,2-trifluoroethyl)piperazin-1-yl)prop-1-en-1-yl)-4,5-dihydropyrazolo[1,5-a]pyrimidine-6-carboxamide], 0.8 nM.
The same measure, in the same setting: as for `CC(C)(C)Cn1c(=O)c(C(=O)NC2CC2)c(O)n2nc(Nc3cncc(C(N)=O)n3)cc12` [Synthesis Example 345, 2-((6-Carbamoylpyrazin-2-yl)amino)-N-cyclopropyl-7-hydroxy-4-neopentyl-5-oxo-4,5-dihydropyrazolo[1,5-a]pyrimidine-6-carboxamide], the figure is 0.92 nM.
Turning to `CC(C)Cn1c(=O)c(C(=O)NC2CC2)c(O)n2ncc(/C=C/C(=O)N3CCCC3(C)C)c12` [compound 537, (E)-N-Cyclopropyl-3-(3-(2,2-dimethylpyrrolidin-1-yl)-3-oxoprop-1-en-1-yl)-7-hydroxy-4-isobutyl-5-oxo-4,5-dihydropyrazolo[1,5-a]pyrimidine-6-carboxamide], the IC50 amounted to 0.86 nM.
Same read-out and setting: the value for `CC(C)Cn1c(=O)c(C(=O)NC2CC2)c(O)n2ncc(C(=O)NCc3ccccn3)c12` [Synthesis Example 215, N6-Cyclopropyl-7-hydroxy-4-isobutyl-5-oxo-N3-(pyridin-2-ylmethyl)-4,5-dihydropyrazolo[1,5-a]pyrimidine-3,6-dicarboxamide] was 1.04 nM.

Staying with this assay, now noted: sepiapterin absorbance, Table 41, read-out: concentration at 50% inhibition of human SPR (IC50).
Consider `CC(C)Cn1c(=O)c(C(=O)NC2CC2)c(O)n2ncc(/C=C/C(=O)N3C[C@@H](C)OC[C@H]3C)c12` [Synthesis Example 716, N-Cyclopropyl-3-((E)-3-((2R,5R)-2,5-dimethylmorpholino)-3-oxoprop-1-en-1-yl)-7-hydroxy-4-isobutyl-5-oxo-4,5-dihydropyrazolo[1,5-a]pyrimidine-6-carboxamide], for which the IC50 worked out at 0.88 nM.
On to `CC(C)Cn1c(=O)c(C(=O)NC2CC2)c(O)n2ncc(/C=C/C(=O)N3C[C@@H](F)[C@@H](F)C3)c12` [Synthesis Example 722, N-Cyclopropyl-3-((E)-3-(cis-3,4-difluoropyrrolidin-1-yl)-3-oxoprop-1-en-1-yl)-7-hydroxy-4-isobutyl-5-oxo-4,5-dihydropyrazolo[1,5-a]pyrimidine-6-carboxamide], for which the IC50 worked out at 0.81 nM.
The same measure, in the same setting: as for `Cc1nn2c(O)c(C(=O)NC3CC3)c(=O)n(CC(C)C)c2c1/C=C/C(=O)N1CCN(CC2CC(F)(F)C2)CC1` [Synthesis Example 698, (E)-N-Cyclopropyl-3-(3-(4-((3,3-difluorocyclobutyl)methyl)piperazin-1-yl)-3-oxoprop-1-en-1-yl)-7-hydroxy-4-isobutyl-2-methyl-5-oxo-4,5-dihydropyrazolo[1,5-a]pyrimidine-6-carboxamide], the figure is 1.52 nM.
Still for that read-out and setting: the value for `Cc1nn2c(O)c(C(=O)NC3CC3)c(=O)n(CC(C)C)c2c1/C=C/C(=O)N1CCN(CC(F)(F)F)CC1` [Synthesis Example 685, (E)-N-Cyclopropyl-7-hydroxy-4-isobutyl-2-methyl-5-oxo-3-(3-oxo-3-(4-(2,2,2-trifluoroethyl)piperazin-1-yl)prop-1-en-1-yl)-4,5-dihydropyrazolo[1,5-a]pyrimidine-6-carboxamide] was 1.23 nM; that for `CC(C)Cn1c(=O)c(C(=O)NC2CC2)c(O)n2ncc(/C=C/C(=O)N3C[C@H](C)OC[C@@H]3C)c12` [Synthesis Example 717, N-Cyclopropyl-3-((E)-3-((2S,5S)-2,5-dimethylmorpholino)-3-oxoprop-1-en-1-yl)-7-hydroxy-4-isobutyl-5-oxo-4,5-dihydropyrazolo[1,5-a]pyrimidine-6-carboxamide] was 0.78 nM; that for `Cc1nn2c(O)c(C(=O)NC3CC3)c(=O)n(CC(C)C)c2c1/C=C/C(=O)N1CCN(CC2CC(F)(F)C2)C[C@@H]1C` [Synthesis Example 703, (S,E)-N-Cyclopropyl-3-(3-(4-((3,3-difluorocyclobutyl)methyl)-2-methylpiperazin-1-yl)-3-oxoprop-1-en-1-yl)-7-hydroxy-4-isobutyl-2-methyl-5-oxo-4,5-dihydropyrazolo[1,5-a]pyrimidine-6-carboxamide] was 1.44 nM.
On the same count and under the same terms, the value for `Cc1nn2c(O)c(C(=O)NC3CC3)c(=O)n(CC(C)C)c2c1/C=C/C(=O)N1CCc2cnccc21` [Synthesis Example 705, (E)-N-Cyclopropyl-3-(3-(2,3-dihydro-1H-pyrrolo[3,2-c]pyridin-1-yl)-3-oxoprop-1-en-1-yl)-7-hydroxy-4-isobutyl-2-methyl-5-oxo-4,5-dihydropyrazolo[1,5-a]pyrimidine-6-carboxamide] was 1.58 nM; that for `Cc1nn2c(O)c(C(=O)NC3CC3)c(=O)n(CC(C)C)c2c1/C=C/C(=O)N1C[C@@H](F)[C@H](F)C1` (single isomer, unassigned; isomer a) [Synthesis Example 755, N-Cyclopropyl-3-((E)-3-(trans-3,4-difluoropyrrolidin-1-yl)-3-oxoprop-1-en-1-yl)-7-hydroxy-4-isobutyl-2-methyl-5-oxo-4,5-dihydropyrazolo[1,5-a]pyrimidine-6-carboxamide (Isomer A)] was 0.61 nM.
